{"source": "patent US20050037074A1", "about": "“Delayed and sustained drug release” (priority 2001, published 2005)", "key": {"[1]": {"conditions": "in vivo; cited from earlier work"}, "[2]": {"experiment": "Study 2: pharmacokinetics of individually tailored (BSA- or weight-adjusted) dose of oral HC in adrenal-insufficient patients", "assay_type": "in vivo, human", "conditions": "fasted", "description": "(§1) Serum was separated from blood samples immediately after collection and stored at minus 20° C. until analysis. Cortisol concentrations were measured using an ACS:180 automatic chemiluminescence system (Kiron Diagnostic Corporation, East Walpole, USA). Intra- and inter-assay coefficients of variation were less than 7.6%.\n(§2) The study was carried out in two groups of adrenal-insufficient patients, and a group of healthy subjects. It was approved by the North Sheffield Local Research Ethics Committee, and all participants gave written informed consent. All patients had primary or secondary adrenal insufficiency based on a 0900 h serum cortisol level off treatment of less than 50 nmol/l. Normal controls were matched to the second group of patients for gender, age, height, weight and BSA within 10% of individual patients. Patients on oestrogen replacement were studied after having stopped oestrogen for 6 weeks.\nStudy 2—Pharmacokinetics of individually tailored dose of oral HC and testing of monitoring protocol: A further 10 patients (6M, 4F; 46-68 y; BMI 24.4-35.5 kg/m^2) were studied after receiving HC doses of 5.5 mg/m^2 BSA (to the nearest practical dose unit) at 0830 h, 1 h before breakfast. The dosage was derived from analysis of the Study 1 data to minimise inter-subject variability. A tablet cutter was used to adjust the HC dose in 2.5 mg quanta, i.e. quarters of 10 mg tablets. Thus, the absolute dose ranged from 7.5 to 12.5 mg. Blood sampling was as in Study 1. Serum concentrations of endogenous cortisol were measured in 7 healthy subjects (3M, 4F; 44-68 y; BMI 23.2-28.7 kg/m^2) at the same time points as the patients but without ingestion of HC.\nOwing to the discrete nature of dose increments (multiples of 2.5 mg) 9 of the 10 patients who had taken the BSA-adjusted HC dose would still require the same dose if this had been weight-adjusted. Only one of the 10 patients needed a reduction in the HC dose from 12.5 mg to 10.0 mg to be in the nearest weight-adjusted dose range.\nTherefore, in the part of our analysis that was related to body weight-adjusted doses, the serum cortisol levels of this patient were normalised to a 10.0 mg dose assuming concentration-dose proportionality.\n(§3) Kinetic analysis of the serum cortisol concentration-time profiles in the patients was carried out using the software package, P-Pharm (version 1.5, InnaPhase, France), assuming mono-exponential disposition, first-order absorption, and a baseline correction to account for any endogenous levels of cortisol. Values of oral clearance (CL/F), volume of distribution (V/F), absorption rate constant (ka) and absorption lag time (tlag) were obtained from the model fitting and were used to derive other parameter values. Bias in dosing was assessed as the percentage difference in AUC values in patients compared to the AUC of endogenous cortisol in the healthy subjects over the same time period. Variability in the features of the serum cortisol concentration-time profile in the patients was expressed as coefficient of variation (CV). The effect of food intake in Study 1 was assessed using ANOVA, accounting for repeat individual measurements in the fasting state. Body surface area, weight, height, BMI, dose of HC, gender and age were also investigated as co-variables. All statistical analyses were carried out using SPSS version 10.0 (SPSS Inc, USA)."}, "[3]": {"experiment": "Study 1: pharmacokinetics of 10 mg fixed dose oral HC in adrenal-insufficient patients", "assay_type": "in vivo, human", "conditions": "for oral clearance / half-life: 10 mg oral, mean±S.E.M.; for Bias (AUC), % difference from healthy matched controls / Variability in AUC (C.V.) / Variability in Cmax (C.V.): Fixed 10 mg, listed as HC; for half-life: both sexes, human, serum, po, 10 mg, read-out: absorption half-life", "description": "as §1, §2\nStudy 1—Pharmacokinetics of 10 mg fixed dose oral HC: Ten patients (5M, 5F, Age 32-72 yrs, BMI 21.7-35.8 kg/m^2) attended the Programmed Investigation Unit on 3 occasions. They discontinued HC replacement from noon on the day prior to the study and fasted from midnight. On the first and third occasions, the patients fasted throughout the study and, on the second occasion, they received a standard breakfast 20-30 minutes before receiving HC. On each of the 3 study days, patients received 10 mg of HC (Hydrocortone™, Merck, Sharp and Dohme) orally, between 0800-0900 h. Peripheral venous blood samples were taken immediately before dosage and at 20, 40, 50, 60, 70, 80, 90, 100, 120, 180, 240, 300 and 360 minutes after dosage; the serum was collected and stored pending assay for HC.\nas §3"}, "ACTH": {"test_system": "ACTH", "experiment": "Circadian hydrocortisone infusion in a patient with congenital adrenal hyperplasia (CAH), ACTH and 17-OH progesterone", "assay_type": "in vivo, human", "description": "A treatment regime involves the following protocol. A patient begins a treatment regime at 0830 having taken normal medication the day before. An indwelling cannula is inserted into the patient and basal blood samples are obtained to determine basal levels of cortisol. An infusion cannula is inserted for the administration of a bolus dose of hydrocortisone. Hydrocortisone is administered by infusion once basal samples taken (Patient details: body weight=113 kg; iv bolus 24 mg at 09:00 and follow the infusion rates changed on hourly bases). Total dose for the 1st day is 34.3 mg and 21.8 mg is given by 09:00 in the 2nd day). Samples are taken from the patient periodically from 0900 to 0900 and sampled hourly for cortisol, and ACTH\nDilute 100 mg of hydrocortisone in 2 ml of water for injection (concentration 1 mg/20 ul). Give bolus injection of 24 mg hydrocortisone (480 ul or 0.48 ml of hydrocortisone) using a 1 ml insulin syringe. Flush through with normal saline. For infusion put 50 mg of hydrocortisone (1 ml) in 49 mls normal saline=1 mg/ml and the run infusion according to the protocol above.\nas §1\nThe method comprised the infusion of a patient suffering from CAH with hydrocortisone and the measurement of cortisol and ACTH levels. The patient is a person with CAH who is currently treated with oral hydrocortisone.\nThe infusion protocol for the patient is described in FIG. 5. […] Concomitant with the fall in ACTH the 17-OH progesterone fell from >500 nmol/l to a nadir of 67 nmol/l."}, "[4]": {"conditions": "20 mg hydrocortisone, cited from earlier work"}, "[5]": {"conditions": "cited from earlier work"}, "[6]": {"conditions": "Weight-adjusted (0.12 mg/kg), if weight adjustment was assumed"}}, "note": "Where two headings read alike, the source gives them in different places. Marks after values point to notes of the source that are not given here."}
{"smiles": "C[C@]12CCC(=O)C=C1CC[C@@H]1[C@@H]2[C@@H](O)C[C@@]2(C)[C@H]1CC[C@]2(O)C(=O)CO", "note": "[hydrocortisone, Hydrocortisone]", "values": [{"measurement": "oral bioavailability", "setting": "[1]", "value": "94-96%"}, {"measurement": "Bias (AUC), % difference from healthy matched controls", "setting": "[2]; BSA-adjusted (5.5 mg/m^2)", "value": 7.4, "unit": "%"}, {"measurement": "Variability in AUC (C.V.)", "setting": "[2]; BSA-adjusted (5.5 mg/m^2)", "value": 24, "unit": "%**"}, {"measurement": "Variability in Cmax (C.V.)", "setting": "[2]; BSA-adjusted (5.5 mg/m^2)", "value": 10, "unit": "%*"}, {"measurement": "Variability in AUC (C.V.)", "setting": "[2]; [6]", "value": 22, "unit": "%**"}, {"measurement": "Variability in Cmax (C.V.)", "setting": "[2]; [6]", "value": 7, "unit": "%*"}, {"measurement": "oral clearance", "setting": "[3]; fasted", "value": "0.270 ± 0.027", "unit": "L/min"}, {"measurement": "oral clearance", "setting": "[3]; fed", "value": "0.226 ± 0.031", "unit": "L/min"}, {"measurement": "Bias (AUC), % difference from healthy matched controls", "setting": "[3]; fasted", "value": 6.3, "unit": "%"}, {"measurement": "Variability in AUC (C.V.)", "setting": "[3]; fasted", "value": 50, "unit": "%"}, {"measurement": "Variability in Cmax (C.V.)", "setting": "[3]; fasted", "value": 31, "unit": "%"}, {"measurement": "Bias (AUC), % difference from healthy matched controls", "setting": "[3]; fed", "value": 24.5, "unit": "%"}, {"measurement": "Variability in AUC (C.V.)", "setting": "[3]; fed", "value": 45, "unit": "%"}, {"measurement": "Variability in Cmax (C.V.)", "setting": "[3]; fed", "value": 36, "unit": "%"}, {"measurement": "half-life", "setting": "[3]; fasted", "value": "15 ± 4", "unit": "min"}, {"measurement": "half-life", "setting": "[3]; fed", "value": "43 ± 12", "unit": "min"}, {"measurement": "17-OH progesterone before the fall", "setting": "ACTH; CAH patient on conventional oral hydrocortisone therapy, start of infusion", "value": "> 500", "unit": "nmol/L"}, {"measurement": "17-OH progesterone nadir", "setting": "ACTH; CAH patient, during hydrocortisone infusion", "value": 67, "unit": "nmol/L"}, {"measurement": "morning ACTH after overnight increase in cortisol", "setting": "ACTH; CAH patient, infusion simulating delayed and sustained release hydrocortisone", "value": "prevents the high morning ACTH"}, {"measurement": "ACTH during the infusion", "setting": "ACTH; CAH patient, iv bolus 24 mg then circadian infusion", "value": "rapidly falls"}, {"measurement": "half-life", "setting": "[4]; IV administration", "value": 102, "unit": "min"}, {"measurement": "total body clearance", "setting": "[4]; IV administration", "value": 18, "unit": "L/h"}, {"measurement": "volume of distribution", "setting": "[4]; IV administration", "value": 34, "unit": "L"}, {"measurement": "Oral bioavailablity", "setting": "[4]; oral vs IV, average", "value": 96, "unit": "%"}, {"measurement": "time to maximum levels (absorption)", "setting": "[4]; oral", "value": 1, "unit": "h"}, {"measurement": "circulating cortisol bound to CBG", "setting": "[5]; basal conditions, plasma", "value": "about 75%"}, {"measurement": "cortisol and metabolites conjugated in the liver and excreted in the urine", "setting": "[5]; in vivo", "value": "Over 90%"}, {"measurement": "cortisol excreted in the urine unchanged", "setting": "[5]; in vivo", "value": "less than 1%"}]}
